# Test results as given in Sander's compilation of Henry's law constants (doi:10.1021/es00047a026).
# Test: Henry solubility constant Hcp at 298.15 K (mol/(m3 Pa))
# Settings: reference: Hoff et al. (1993)
row,Compound,Henry solubility constant Hcp
1,ClC(Cl)=C(Cl)Cl [tetrachloroethene],0.00063
2,"CC(Cl)(Cl)Cl [1,1,1-trichloroethane]",0.00053
3,"Clc1cccc(Cl)c1 [1,3-dichlorobenzene]",0.0034
4,ClCCl [dichloromethane],0.0041
5,ClC(Cl)(Cl)Cl [tetrachloromethane],0.00036
6,c1ccccc1 [benzene],0.0017
7,ClC=C(Cl)Cl [trichloroethene],0.0011
8,Clc1ccccc1 [chlorobenzene],0.0026
9,CC(C)=O [propanone],0.27
10,Cc1ccccc1 [methylbenzene],0.0013
